The test system of the test is L1210 leukemia ip in BDF1 mice, survival T/C. Put plainly: NCI In Vivo Anticancer Drug Screen. Data for tumor model L1210 Leukemia (intraperitoneal) in B6D2F1 (BDF1) mice. To be noted: endpoint: mean survival time, higher = longer survival. Put shortly:
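Transplantable tumor model; survival measured in treated vs vehicle control mice. Value = treated/control.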

Where [1] appears, read: dose: 100.0 mg/kg/injection, schedule: Q04DX003 (ip), vehicle: other.
Where [2] appears, read: dose: 200.0 mg/kg/injection, schedule: Q04DX003 (ip), vehicle: other.
[3] abbreviates: dose: 400.0 mg/kg/injection, schedule: Q04DX003 (ip), vehicle: other.
The mark [4] stands for this setting: dose: 50.0 mg/kg/injection, schedule: Q01DX001 (ip), vehicle: saline.
Where [5] appears, read: dose: 100.0 mg/kg/injection, schedule: Q01DX001 (ip), vehicle: saline.
Setting [6] is: dose: 200.0 mg/kg/injection, schedule: Q01DX001 (ip), vehicle: saline.
Setting [7] is: dose: 400.0 mg/kg/injection, schedule: Q01DX001 (ip), vehicle: saline.
The mark [8] stands for this setting: dose: 100.0 mg/kg/injection, schedule: Q01DX001 (ip), vehicle: carboxymethylcellulose (CMC).
Setting [9] is: dose: 200.0 mg/kg/injection, schedule: Q01DX001 (ip), vehicle: carboxymethylcellulose (CMC).
Setting [10] is: dose: 400.0 mg/kg/injection, schedule: Q01DX001 (ip), vehicle: carboxymethylcellulose (CMC).
The mark [11] stands for this setting: dose: 100.0 mg/kg/injection, schedule: Q01DX009 (ip), vehicle: saline with Tween-80.
Setting [12] is: dose: 200.0 mg/kg/injection, schedule: Q01DX009 (ip), vehicle: saline with Tween-80.

Values joined by “and” are separate entries in the source; they are usually repeats but may differ in a detail not shown here. Equal entries are not always repeated. Toxic doses and inconclusive results are not listed.

Turning to `c1ccc2cc(C3OCC4(CC4)CO3)ccc2c1`, the T/C reads like this: (dose: 50.0 mg/kg/injection, schedule: Q01DX001 (ip), vehicle: Klucel (hydroxypropylcellulose) (HPC)) 109 % of control; (dose: 100.0 mg/kg/injection, schedule: Q01DX001 (ip), vehicle: Klucel (hydroxypropylcellulose) (HPC)) 102 % of control; (dose: 200.0 mg/kg/injection, schedule: Q01DX001 (ip), vehicle: Klucel (hydroxypropylcellulose) (HPC)) 100 % of control.

As for `O=C(O)C1=NN(c2ccc([N+](=O)[O-])cc2)C(=O)C1`, the T/C was 106 % of control under setting [1], 105 % of control under setting [2] and 106 % of control under setting [3].

On to `O=C(CCCC(=O)N/N=C/c1cccc(O)c1)N/N=C\c1cccc(O)c1`, for which the T/C is, setting by setting: under setting [4], 98 % of control; under setting [5], 104 % of control; under setting [6], 98 % of control; under setting [7], 92 % of control.

As for `CC(=O)c1c(C)cc(=O)[nH]c1O`, the T/C under setting [5] was 107 % of control, the T/C under setting [6] was 97 % of control and the T/C under setting [7] is 110 % of control.

With `COc1cccc(O)c1/C=C/[N+](=O)[O-]`, the T/C runs as follows: (dose: 50.0 mg/kg/injection, schedule: Q01DX009 (ip), vehicle: Klucel (hydroxypropylcellulose) (HPC)) 104 % of control; (dose: 100.0 mg/kg/injection, schedule: Q01DX009 (ip), vehicle: Klucel (hydroxypropylcellulose) (HPC)) 102 % of control.

Turning to `O=S(c1ccccc1)c1ccc2cccccc1-2` (stereo unspecified), the T/C runs as follows: under setting [8], 91 % of control; under setting [9], 94 % of control; under setting [10], 100 % of control.

For `CCCCCCCCCCCCC/C=N/Nc1ccc([N+](=O)[O-])cc1[N+](=O)[O-]`, the T/C is, setting by setting: (dose: 50.0 mg/kg/injection, schedule: Q01DX009 (ip), vehicle: saline with Tween-80) 100 % of control; under setting [11], 93 % of control; under setting [12], 93 % of control.

For the compound `CCCCCCCC(=O)NOS(=O)(=O)O`, the T/C by setting is: (dose: 25.0 mg/kg/injection, schedule: Q01DX001 (ip), vehicle: saline) 101 % of control; (dose: 25.0 mg/kg/injection, schedule: Q01DX009 (ip), vehicle: saline) 91 % of control; (dose: 25.0 mg/kg/injection, schedule: Q04DX003 (ip), vehicle: saline) 100 % of control; under setting [4], 97 % of control; (dose: 50.0 mg/kg/injection, schedule: Q01DX009 (ip), vehicle: saline) 88 % of control; (dose: 50.0 mg/kg/injection, schedule: Q04DX003 (ip), vehicle: saline) 95 % of control. In addition, the T/C (dose: 100.0 mg/kg/injection, schedule: Q04DX003 (ip), vehicle: saline) was 95 % of control.

As for `CCOC(=O)CCCN(c1ccccc1)S(=O)(=O)c1ccc(C)cc1`, the T/C reads like this: under setting [8], 93 % of control; under setting [9], 96 % of control; under setting [10], 107 % of control.

For `CCCCCCCCCCc1ccccc1`, the T/C is 100 % of control (dose: 12.5 mg/kg/injection, schedule: Q04DX002 (ip), vehicle: saline with Tween-80); 97 % of control (dose: 25.0 mg/kg/injection, schedule: Q04DX002 (ip), vehicle: saline with Tween-80); 93 % of control (dose: 50.0 mg/kg/injection, schedule: Q04DX002 (ip), vehicle: saline with Tween-80); 112 % of control (dose: 200.0 mg/kg/injection, schedule: Q04DX002 (ip), vehicle: saline with Tween-80).

For `COC1OC2COC(C2OS(=O)(=O)c2ccc(C)cc2)C1OS(=O)(=O)c1ccc(C)cc1` (stereo unspecified), the T/C was 94 % of control (dose: 50.0 mg/kg/injection, schedule: Q04DX002 (ip), vehicle: Klucel (hydroxypropylcellulose) (HPC)); 94 % of control (dose: 100.0 mg/kg/injection, schedule: Q04DX002 (ip), vehicle: Klucel (hydroxypropylcellulose) (HPC)); 98 % of control (dose: 200.0 mg/kg/injection, schedule: Q04DX002 (ip), vehicle: Klucel (hydroxypropylcellulose) (HPC)).

Take `CC(/C=N/NC(=O)NO)=N\NC(=O)NO`: the T/C is, setting by setting: (dose: 100.0 mg/kg/injection, schedule: Q01DX001 (ip), vehicle: other) 98 % of control; under setting [11], 98 % of control; under setting [1], 112 % of control; (dose: 200.0 mg/kg/injection, schedule: Q01DX001 (ip), vehicle: other) 98 % of control; under setting [12], 97 % of control; under setting [2], 102 % of control. Further, the T/C runs as follows: (dose: 400.0 mg/kg/injection, schedule: Q01DX001 (ip), vehicle: other) 104 % of control; (dose: 400.0 mg/kg/injection, schedule: Q01DX009 (ip), vehicle: saline with Tween-80) 104 % of control; under setting [3], 98 % of control.

As for `c1ccc2c(Nc3ccc(C4=NCCN4)cc3)nnc(Nc3ccc(C4=NCCN4)cc3)c2c1`, the T/C is 110 % of control (dose: 38.0 mg/kg/injection, schedule: Q01DX Z (ip), vehicle: carboxymethylcellulose (CMC)); 103 % of control (dose: 62.5 mg/kg/injection, schedule: Q01DX Z (oral), vehicle: saline); 95 % of control (dose: 63.0 mg/kg/injection, schedule: Q01DX Z (oral), vehicle: water); 170 % of control (dose: 84.0 mg/kg/injection, schedule: Q01DX Z (ip), vehicle: carboxymethylcellulose (CMC)); 103 % of control (dose: 125.0 mg/kg/injection, schedule: Q01DX Z (oral), vehicle: saline); 87 % of control (dose: 125.0 mg/kg/injection, schedule: Q01DX Z (oral), vehicle: water). For the same compound, the T/C is 119 % of control (dose: 187.5 mg/kg/injection, schedule: Q01DX Z (ip), vehicle: carboxymethylcellulose (CMC)); 105 % of control (dose: 250.0 mg/kg/injection, schedule: Q01DX Z (oral), vehicle: saline); 87 % of control (dose: 500.0 mg/kg/injection, schedule: Q01DX Z (oral), vehicle: water).

On to `O=C(NO)N/N=C/C=N/NC(=O)NO`, for which the T/C reads like this: (dose: 75.0 mg/kg/injection, schedule: Q01DX001 (ip), vehicle: saline) 100 % of control; (dose: 150.0 mg/kg/injection, schedule: Q01DX001 (ip), vehicle: saline) 100 % of control; (dose: 300.0 mg/kg/injection, schedule: Q01DX001 (ip), vehicle: saline) 107 % of control.

With `COC(=O)c1cncn1C(C)c1cccc2ccccc12` (stereo unspecified), the T/C reads like this: (dose: 25.0 mg/kg/injection, schedule: Q04DX003 (ip), vehicle: Klucel (hydroxypropylcellulose) (HPC)) 96 % of control; (dose: 50.0 mg/kg/injection, schedule: Q04DX003 (ip), vehicle: Klucel (hydroxypropylcellulose) (HPC)) 102 % of control; (dose: 100.0 mg/kg/injection, schedule: Q04DX003 (ip), vehicle: Klucel (hydroxypropylcellulose) (HPC)) 101 % of control and 103 % of control.

Take `O=C(O)c1cc2c(Br)cccc2c2cc(C(F)(F)F)ccc12`: the T/C is, setting by setting: (dose: 100.0 mg/kg/injection, schedule: Q04DX003 (ip), vehicle: saline with Tween-80) 97 % of control; (dose: 200.0 mg/kg/injection, schedule: Q04DX003 (ip), vehicle: saline with Tween-80) 113 % of control.

Regarding `CN(C)C(N)=S`, the T/C by setting is: (dose: 100.0 mg/kg/injection, schedule: Q01DX009 (ip), vehicle: saline) 91 % of control; (dose: 200.0 mg/kg/injection, schedule: Q01DX009 (ip), vehicle: saline) 100 % of control; (dose: 400.0 mg/kg/injection, schedule: Q01DX009 (ip), vehicle: saline) 100 % of control.

For `Cc1ccc(S(=O)(=O)OC2COC3C(OS(=O)(=O)c4ccc(C)cc4)COC23)cc1` (stereo unspecified), the T/C reads like this: under setting [5], 93 % of control; (dose: 100.0 mg/kg/injection, schedule: Q04DX003 (ip), vehicle: DMSO) 103 % of control; under setting [6], 96 % of control; (dose: 200.0 mg/kg/injection, schedule: Q04DX003 (ip), vehicle: DMSO) 97 % of control; under setting [7], 93 % of control; (dose: 400.0 mg/kg/injection, schedule: Q04DX003 (ip), vehicle: DMSO) 111 % of control.

Take `COc1ccc(-c2c(-c3ccccc3)oc3cc(O)ccc23)cc1`: the T/C reads like this: (dose: 100.0 mg/kg/injection, schedule: Q04DX003 (ip), vehicle: gum acacia) 90 % of control; (dose: 200.0 mg/kg/injection, schedule: Q04DX003 (ip), vehicle: gum acacia) 90 % of control; (dose: 400.0 mg/kg/injection, schedule: Q04DX003 (ip), vehicle: gum acacia) 93 % of control.

The record behind these values is PubChem BioAssay AID248 (DTP/NCI, 2004).
